ChEMBL document CHEMBL1145587, “Facile formation of hydrophilic derivatives of 5H-8,9-dimethoxy-5-[2-(N,N-dimethylamino)ethyl]-2,3-methylenedioxydibenzo[c,h] [1,6]naphthyridin-6-one (ARC-111) and its 12-aza analog via quaternary ammonium intermediates” (Bioorg Med Chem Lett, 2008)

Tests used:
[1] = Cytotoxicity against […] cells; assay type: functional, cell-based; conditions: Mus musculus, P388CPT45
P388 = assay: Cytotoxicity against […] cells; assay type: functional, cell-based; conditions: Mus musculus
[2] = Cytotoxicity against human […] cells; assay type: functional, cell-based
[3] = Cytotoxicity against human camptothecin-resistant CPT-K5 cells; assay type: functional, cell-based
[4] = target: T1, DNA topoisomerase 1 (Homo sapiens) (UniProt P11387); assay: Effect on human topoisomerase 1-mediated plasmid DNA cleavage relative to topotecan
T1 sequence (whole entry): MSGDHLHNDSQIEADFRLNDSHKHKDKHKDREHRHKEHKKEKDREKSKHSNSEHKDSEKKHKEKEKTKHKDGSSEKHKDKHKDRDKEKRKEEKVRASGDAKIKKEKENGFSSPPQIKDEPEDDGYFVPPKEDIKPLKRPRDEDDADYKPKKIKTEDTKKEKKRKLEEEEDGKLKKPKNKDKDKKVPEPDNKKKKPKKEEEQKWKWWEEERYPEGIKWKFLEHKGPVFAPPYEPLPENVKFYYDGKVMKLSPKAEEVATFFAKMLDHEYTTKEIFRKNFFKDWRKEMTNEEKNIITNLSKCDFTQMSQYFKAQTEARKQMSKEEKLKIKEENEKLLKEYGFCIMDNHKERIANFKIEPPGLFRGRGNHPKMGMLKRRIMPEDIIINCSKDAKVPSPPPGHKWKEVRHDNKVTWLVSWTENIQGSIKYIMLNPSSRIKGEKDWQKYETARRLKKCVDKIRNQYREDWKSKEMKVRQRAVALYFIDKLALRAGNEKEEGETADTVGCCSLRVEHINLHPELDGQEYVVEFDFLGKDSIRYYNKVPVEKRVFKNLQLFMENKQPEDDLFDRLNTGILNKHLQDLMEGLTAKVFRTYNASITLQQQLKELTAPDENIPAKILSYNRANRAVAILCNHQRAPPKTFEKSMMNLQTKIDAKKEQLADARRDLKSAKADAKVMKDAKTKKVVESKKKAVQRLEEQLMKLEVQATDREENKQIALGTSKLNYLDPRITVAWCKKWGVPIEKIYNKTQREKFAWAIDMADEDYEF

Question: Which IC50 [1] does the source give for `COc1cc2c(=O)n(CCn3ccnc3)c3c4cc5c(cc4ncc3c2cc1OC)OCO5` here?
Answer: > 10 µM

Question: What about the IC50 (P388) of the same compound?
Answer: 0.2 µM

Question: And the IC50 [2]?
Answer: 0.21 µM

Question: What about the IC50 [3] of the same compound?
Answer: > 10 µM

Question: And the Activity [4]?
Answer: 2.3

Question: For `COc1cc2c(=O)n(CCO)c3c4cc5c(cc4nnc3c2cc1OC)OCO5`, which IC50 [1] is on record?
Answer: 0.7 µM

Question: What about the IC50 (P388) of the same compound?
Answer: 0.012 µM

Question: And the IC50 [2]?
Answer: 0.013 µM

Question: And the IC50 [3]?
Answer: 1.3 µM

Question: What about the Activity [4] of the same compound?
Answer: 0.3

Question: Which results are given for `COc1cc2c(=O)n(CCn3ccnc3)c3c4cc5c(cc4nnc3c2cc1OC)OCO5`?
Answer: IC50 [1]: > 10 µM; IC50 (P388): 0.19 µM; IC50 [2]: 0.4 µM; IC50 [3]: > 10 µM; Activity [4]: 0.1

Question: Which results are given for `COc1cc2c(=O)n(CCN(C)C)c3c4cc5c(cc4ncc3c2cc1OC)OCO5`?
Answer: IC50 [1]: 0.23 µM; IC50 (P388): 0.001 µM; IC50 [2]: 0.002 µM; IC50 [3]: 0.9 µM; Activity [4]: 0.3

Question: For `COc1cc2c(=O)n(CCNC(CO)(CO)CO)c3c4cc5c(cc4ncc3c2cc1OC)OCO5`, which IC50 [1] is on record?
Answer: 3.5 µM

Question: And the IC50 (P388)?
Answer: 0.33 µM

Question: What about the IC50 [2] of the same compound?
Answer: 0.33 µM

Question: And the IC50 [3]?
Answer: 7 µM

Question: What about the Activity [4] of the same compound?
Answer: 2

Question: Which results are given for `COc1cc2c(=O)n(CCN(C)C)c3c4cc5c(cc4nnc3c2cc1OC)OCO5`?
Answer: IC50 [1]: 0.23 µM; IC50 (P388): 0.002 µM; IC50 [2]: 0.002 µM; IC50 [3]: 0.74 µM; Activity [4]: 0.3

Question: Which IC50 [1] does the source give for `CC[C@@]1(O)C(=O)OCc2c1cc1n(c2=O)Cc2cc3ccccc3nc2-1` [CAMPTOTHECIN] here?
Answer: > 10 µM

Question: What about the IC50 (P388) of the same compound?
Answer: 0.004 µM

Question: And the IC50 [2]?
Answer: 0.004 µM

Question: And the IC50 [3]?
Answer: > 10 µM

Question: What about the Activity [4] of the same compound?
Answer: 0.2

Question: With `COc1cc2c(=O)n(CCN(C)CCN(C)C)c3c4cc5c(cc4nnc3c2cc1OC)OCO5` as the compound, how does the IC50 [1] read?
Answer: 0.3 µM

Question: And the IC50 (P388)?
Answer: 0.019 µM

Question: What about the IC50 [2] of the same compound?
Answer: 0.033 µM

Question: And the IC50 [3]?
Answer: 2.2 µM

Question: And the Activity [4]?
Answer: 0.4

Question: For `COc1cc2c(=O)n(CCNC(CO)(CO)CO)c3c4cc5c(cc4nnc3c2cc1OC)OCO5`, which IC50 [1] is on record?
Answer: 3 µM

Question: And the IC50 (P388)?
Answer: 0.04 µM

Question: What about the IC50 [2] of the same compound?
Answer: 0.065 µM

Question: What about the IC50 [3] of the same compound?
Answer: 5.7 µM

Question: And the Activity [4]?
Answer: 0.2

Question: With `COc1cc2c(=O)n(CCN(C)CCN(C)C)c3c4cc5c(cc4ncc3c2cc1OC)OCO5` as the compound, how does the IC50 [1] read?
Answer: 0.07 µM

Question: And the IC50 (P388)?
Answer: 0.035 µM

Question: And the IC50 [2]?
Answer: 0.045 µM

Question: What about the IC50 [3] of the same compound?
Answer: 2.2 µM

Question: What about the Activity [4] of the same compound?
Answer: 0.7

Question: Which IC50 [1] does the source give for `COc1cc2c(=O)n(CCO)c3c4cc5c(cc4ncc3c2cc1OC)OCO5` here?
Answer: 0.9 µM

Question: What about the IC50 (P388) of the same compound?
Answer: 0.03 µM

Question: What about the IC50 [2] of the same compound?
Answer: 0.03 µM

Question: What about the IC50 [3] of the same compound?
Answer: > 10 µM

Question: And the Activity [4]?
Answer: 4.7
